In US10588935B2, “FC receptor (FcRn) binding peptides and uses thereof” (THE BRIGHAM AND WOMEN'S HOSPITAL, INC., priority 2013, dated 2020):
Values joined by “and” are separate entries in the source; they are usually repeats but may differ in a detail not shown here. Equal values may be shown once. Read-outs that look alike come from different tables or passages of the source. Bridge positions count the residues as written; N and C are the ends. Peptide text beside a SMILES is read from it.

Target: T1, soluble human FcRn (Homo sapiens, UniProt P55899)
T1 construct: Soluble human FcRn was expressed and purified by Biogen-Idec as previously described (29)
Assay: SPR (Biacore) affinity of peptides for immobilized soluble human FcRn
Assay type: binding
Description: SPR analyses were conducted using a Biacore 3000 or T100 instrument. Research-grade CM5 sensor chips and all coupling reagents for immobilization were purchased from Biacore. All proteins were cross-linked to the dextran surface of a CM5 sensor chip by standard amine coupling chemistry as recommended by Biacore. […] Binding experiments were performed at pH 6.0 or 7.4 using 50 mM phosphate, 100 mM sodium chloride and 0.01% surfactant P20. […] Bound albumin protein was then allowed to dissociate from the chip for 5 minutes with running buffer. Any remaining albumin was removed from the chip with a 60 second injection (2 cycles) of pH 8.0 Tris-HCl regeneration buffer (1 M Tris pH 8.0) at 25 μL/min flow rate. The binding responses recorded near the end of the association phase were plotted as a function of concentration. Equilibrium dissociation constants (KD), were derived from sensorgrams using the 1:1 binding model of BIAevaluation software 4.1.

[1] = Table 2, pH 6, immobilized shFcRn, data fit steady state or 2 site, read-out: Kd, pH 6** Biacore
[2] = Table 2, pH 7.4, data only 100 uM, therefore Kd may be higher, read-out: Kd, pH 7.4 Biacore
[3] = Table 1, pH 6, shFcRn immobilized on the sensor chip, steady state fit, read-out: Kd, pH 6** Biacore

Kd Ratio 7.4/6.0 (Table 2) | Kd [2] [µM] | SMILES | further results
112 | 17.3 | CSCC[C@@H]1NC(=O)[C@H](CCC(=O)O)NC(=O)[C@H](CCC(=O)O)NC(=O)[C@H](CC(=O)O)NC(=O)[C@H](Cc2c[nH]c3ccccc23)NC(=O)[C@H](Cc2c[nH]c3ccccc23)NC(=O)[C@@H](NC(=O)[C@H](CCCCN)NC(=O)[C@H](CCSC)NC(=O)[C@@H](NC(C)=O)C(C)C)CSSC[C@@H](C(=O)N[C@@H](CCCNC(=N)N)C(=O)N[C@@H](C)C(=O)N[C@@H](Cc2ccccc2)C(N)=O)NC(=O)[C@H](CC(C)C)NC1=O [SYN1532] (Ac-VMKCWWDEEMLCRAF-NH2; disulfide 4-12 (inferred)) | –
2.2 | – | CSCC[C@H](NC(=O)[C@H](Cc1ccc(O)cc1)NC(C)=O)C(=O)N[C@H](C(=O)N[C@H]1CSSC[C@@H](C(=O)N[C@@H](CCC(=O)O)C(=O)N[C@@H](Cc2ccc(O)cc2)C(=O)N[C@H](C(N)=O)C(C)C)NC(=O)[C@H](CO)NC(=O)[C@H](Cc2ccccc2)NC(=O)CNC(=O)[C@H](C)NC(=O)[C@H](CC(=O)O)NC(=O)[C@H](Cc2c[nH]c3ccccc23)NC(=O)[C@H](CCCCN)NC1=O)[C@@H](C)O [SYN1150] (Ac-YMTCKWDAGFSCEYV-NH2; disulfide 4-12 (inferred)) | –

More lines, now with the values behind:

SMILES | Kd Ratio 7.4/6.0 (Table 2) | Kd [2] [µM] | further results
CSCC[C@H](NC(=O)[C@@H](NC(C)=O)C(C)C)C(=O)N[C@@H](Cc1c[nH]cn1)C(=O)N[C@H]1CSSC[C@@H](C(=O)N[C@@H](CC(=O)O)C(=O)N[C@@H](CCC(N)=O)C(=O)N[C@H](C(N)=O)C(C)C)NC(=O)[C@H](CCCCN)NC(=O)[C@H](Cc2ccccc2)NC(=O)[C@H](CCC(=O)O)NC(=O)[C@H](CCC(=O)O)NC(=O)[C@H](CC(=O)O)NC(=O)[C@H](Cc2c[nH]c3ccccc23)NC(=O)[C@H](Cc2ccccc2)NC1=O [SYN1260] (Ac-VMHCFWDEEFKCDQV-NH2; disulfide 4-12 (inferred)) | 73 | 22 | Kd [1]: 0.3 µM
CSCC[C@H](NC(=O)[C@H](Cc1ccc(O)cc1)NC(C)=O)C(=O)N[C@H](C(=O)N[C@H]1CSSC[C@@H](C(=O)N[C@@H](CCC(=O)O)C(=O)N[C@@H](Cc2ccc(O)cc2)C(N)=O)NC(=O)[C@H](CO)NC(=O)[C@H](Cc2ccccc2)NC(=O)CNC(=O)[C@H](CC(=O)O)NC(=O)[C@H](CC(=O)O)NC(=O)[C@H](Cc2c[nH]c3ccccc23)NC(=O)[C@H](CCCCN)NC1=O)[C@@H](C)O [SYN1164] (Ac-YMTCKWDDGFSCEY-NH2; disulfide 4-12 (inferred)) | – | – | Kd [1]: 0.57 ± 0.02 µM
CSCC[C@H](NC(=O)[C@@H](NC(C)=O)C(C)C)C(=O)N[C@@H](Cc1c[nH]cn1)C(=O)N[C@H]1CSSC[C@@H](C(=O)N[C@@H](CC(=O)O)C(=O)N[C@@H](Cc2ccc(O)cc2)C(=O)NCC(N)=O)NC(=O)[C@H](CCCCN)NC(=O)[C@H](Cc2ccccc2)NC(=O)[C@H](CCC(=O)O)NC(=O)[C@H](CCC(=O)O)NC(=O)[C@H](CC(=O)O)NC(=O)[C@H](Cc2c[nH]c3ccccc23)NC(=O)[C@H](Cc2ccccc2)NC1=O [SYN1259] (Ac-VMHCFWDEEFKCDYG-NH2; disulfide 4-12 (inferred)) | 132 | 12 | –
CC(=O)N[C@@H](CCCNC(=N)N)C(=O)N[C@@H](Cc1ccc(O)cc1)C(=O)N[C@@H](Cc1ccccc1)C(=O)N[C@@H]1C(=O)N[C@@H]([C@@H](C)O)C(=O)N[C@@H](CCCCN)C(=O)N[C@@H](Cc2c[nH]c3ccccc23)C(=O)N[C@@H](CCCCN)C(=O)N[C@@H](Cc2c[nH]cn2)C(=O)NCC(=O)N[C@@H](Cc2c[nH]c3ccccc23)C(=O)N[C@H](C(=O)N[C@@H](CCC(=O)O)C(=O)N[C@@H](CCC(=O)O)C(=O)N[C@H](C(N)=O)C(C)C)CSSC1(C)C [SYN1555] | – | – | Kd [3]: > 100 µM
CSCC[C@H](NC(=O)[C@H](Cc1ccc(O)cc1)NC(C)=O)C(=O)N[C@H](C(=O)N[C@H]1CSSC[C@@H](C(=O)N[C@@H](CCC(=O)O)C(=O)N[C@@H](Cc2ccc(O)cc2)C(=O)N[C@@H](C)C(N)=O)NC(=O)[C@H](CO)NC(=O)[C@H](Cc2ccccc2)NC(=O)CNC(=O)[C@H](CC(=O)O)NC(=O)[C@H](CC(=O)O)NC(=O)[C@H](Cc2c[nH]c3ccccc23)NC(=O)[C@H](CCCCN)NC1=O)[C@@H](C)O [SYN1156] (Ac-YMTCKWDDGFSCEYA-NH2; disulfide 4-12 (inferred)) | 38 | 22 | –
CC(=O)N[C@@H](CCCNC(=N)N)C(=O)N[C@@H](Cc1ccc(O)cc1)C(=O)N[C@@H](Cc1ccccc1)C(=O)N[C@H]1CSSC[C@@H](C(=O)N[C@@H](CCC(=O)O)C(=O)N[C@@H](CCC(=O)O)C(=O)N[C@H](C(N)=O)C(C)C)NC(=O)[C@H](Cc2c[nH]c3ccccc23)NC(=O)CNC(=O)[C@H](Cc2c[nH]cn2)NC(=O)[C@H](CCCCN)NC(=O)[C@H](Cc2c[nH]c3ccccc23)NC(=O)[C@H](CCCCN)NC(=O)[C@H](C)NC1=O [SYN1545] (Ac-RYFCAKWKHGWCEEV-NH2; disulfide 4-12 (inferred)) | – | – | Kd [3]: 9.3 µM
CSCC[C@H](NC(=O)[C@@H](NC(C)=O)C(C)C)C(=O)N[C@@H](Cc1c[nH]cn1)C(=O)N[C@H]1CSSC[C@@H](C(=O)N[C@@H](CC(=O)O)C(=O)N[C@@H](CCC(N)=O)C(=O)NCC(N)=O)NC(=O)[C@H](CCCCN)NC(=O)[C@H](Cc2ccccc2)NC(=O)[C@H](C)NC(=O)[C@H](CCC(=O)O)NC(=O)[C@H](CC(=O)O)NC(=O)[C@H](Cc2c[nH]c3ccccc23)NC(=O)[C@H](Cc2ccccc2)NC1=O [SYN1216] (Ac-VMHCFWDEAFKCDQG-NH2; disulfide 4-12 (inferred)) | 52 | – | –
CSCC[C@H](NC(=O)[C@H](Cc1ccc(O)cc1)NC(C)=O)C(=O)N[C@H](C(=O)N[C@H]1CSSC[C@@H](C(=O)N[C@@H](CCC(=O)O)C(=O)N[C@@H](Cc2ccc(O)cc2)C(=O)N[C@H](C(N)=O)C(C)C)NC(=O)[C@H](CO)NC(=O)[C@H](Cc2ccccc2)NC(=O)CNC(=O)[C@H](CC(=O)O)NC(=O)[C@H](CC(=O)O)NC(=O)[C@H](Cc2c[nH]c3ccccc23)NC(=O)[C@H](C)NC1=O)[C@@H](C)O [SYN1147] (Ac-YMTCAWDDGFSCEYV-NH2; disulfide 4-12 (inferred)) | 56 | – | –
CSCC[C@H](NC(=O)[C@H](Cc1ccc(O)cc1)NC(C)=O)C(=O)N[C@H](C(=O)N[C@H]1CSSC[C@@H](C(=O)N[C@@H](CCC(=O)O)C(=O)N[C@@H](C)C(=O)N[C@H](C(N)=O)C(C)C)NC(=O)[C@H](CO)NC(=O)[C@H](Cc2ccccc2)NC(=O)CNC(=O)[C@H](CC(=O)O)NC(=O)[C@H](CC(=O)O)NC(=O)[C@H](Cc2c[nH]c3ccccc23)NC(=O)[C@H](CCCCN)NC1=O)[C@@H](C)O [SYN1155] (Ac-YMTCKWDDGFSCEAV-NH2; disulfide 4-12 (inferred)) | 9.8 | 17.3 | –
CC(=O)N[C@@H](CCCNC(=N)N)C(=O)N[C@@H](Cc1ccc(O)cc1)C(=O)N[C@@H](Cc1ccccc1)C(=O)N[C@@H]1C(=O)N[C@@H]([C@@H](C)O)C(=O)N[C@@H](CCCCN)C(=O)N[C@@H](Cc2c[nH]c3ccccc23)C(=O)N[C@@H](CCCCN)C(=O)N[C@@H](Cc2c[nH]cn2)C(=O)NCC(=O)N[C@@H](Cc2c[nH]c3ccccc23)C(=O)N[C@H](C(=O)N[C@@H](CCC(=O)O)C(=O)N[C@@H](CCC(=O)O)C(=O)N[C@H](C(N)=O)C(C)C)C(C)(C)SSC1(C)C [SYN1557, Ac-RYF-Pen-TKWKHGW-Pen-EEV-CONH2] | – | – | Kd [3]: > 100 µM
CSCC[C@H](NC(=O)[C@H](Cc1ccc(O)cc1)NC(C)=O)C(=O)N[C@H](C(=O)N[C@H]1CSSC[C@@H](C(=O)N[C@@H](C)C(=O)N[C@@H](Cc2ccc(O)cc2)C(=O)N[C@H](C(N)=O)C(C)C)NC(=O)[C@H](CO)NC(=O)[C@H](Cc2ccccc2)NC(=O)CNC(=O)[C@H](CC(=O)O)NC(=O)[C@H](CC(=O)O)NC(=O)[C@H](Cc2c[nH]c3ccccc23)NC(=O)[C@H](CCCCN)NC1=O)[C@@H](C)O [SYN1154] (Ac-YMTCKWDDGFSCAYV-NH2; disulfide 4-12 (inferred)) | 20 | – | Kd [1]: 1.5 µM and 0.46 µM
CSCC[C@H](NC(=O)[C@@H](NC(C)=O)C(C)C)C(=O)N[C@@H](Cc1c[nH]cn1)C(=O)N[C@H]1CSSC[C@@H](C(=O)N[C@@H](CC(=O)O)C(=O)N[C@@H](CCC(N)=O)C(=O)NCC(N)=O)NC(=O)[C@H](CCCNC(=N)N)NC(=O)[C@H](Cc2ccccc2)NC(=O)[C@H](C)NC(=O)[C@H](CCC(=O)O)NC(=O)[C@H](CC(=O)O)NC(=O)[C@H](Cc2c[nH]c3ccccc23)NC(=O)[C@H](Cc2ccccc2)NC1=O [SYN1382] (Ac-VMHCFWDEAFRCDQG-NH2; disulfide 4-12 (inferred)) | 25 | – | –
CC(=O)N[C@@H](CCCNC(=N)N)C(=O)N[C@@H](Cc1ccc(O)cc1)C(=O)N[C@@H](Cc1ccccc1)C(=O)N[C@H]1CSSC[C@@H](C(=O)N[C@@H](CCC(=O)O)C(=O)N[C@@H](CCC(=O)O)C(=O)N[C@H](C(N)=O)C(C)C)NC(=O)[C@H](C)NC(=O)CNC(=O)[C@H](Cc2c[nH]cn2)NC(=O)[C@H](CCCCN)NC(=O)[C@H](Cc2c[nH]c3ccccc23)NC(=O)[C@H](CCCCN)NC(=O)[C@H]([C@@H](C)O)NC1=O [SYN1551] (Ac-RYFCTKWKHGACEEV-NH2; disulfide 4-12) | – | – | Kd [3]: > 200 µM
CSCC[C@H](NC(=O)[C@@H](NC(C)=O)C(C)C)C(=O)N[C@@H](Cc1c[nH]cn1)C(=O)N[C@H]1CSSC[C@@H](C(=O)N[C@@H](CC(=O)O)C(=O)N[C@@H](CCC(N)=O)C(=O)NCC(N)=O)NC(=O)[C@H](CCCCN)NC(=O)[C@H](Cc2ccccc2)NC(=O)[C@H](CCC(=O)O)NC(=O)[C@H](CCC(=O)O)NC(=O)[C@H](CC(=O)O)NC(=O)[C@H](Cc2c[nH]c3ccccc23)NC(=O)[C@H](C)NC1=O [SYN1217] (Ac-VMHCAWDEEFKCDQG-NH2; disulfide 4-12) | – | – | Kd [1]: > 20 µM; Kd, pH 7.4 Biacore (Table 2, pH 7.4, data only 100 uM, therefore Kd may be higher): no bind
